Values joined by “and” are separate entries in the source; they are usually repeats but may differ in a detail not shown here. Equal values may be shown once.
Assays:
[1] = test system: dogs subjected to partial medial meniscectomy; assay: Dog partial medial meniscectomy study, collagen damage width; format: in vivo
Source text: Collagen damage across the medial tibial plateau (most severely affected section) was quantified by measuring the total width of the following:
Any damage (fibrillation ranging from superficial to full thickness loss)
Severe damage (total or near total loss of collagen to tidemark, >90% thickness)
Marked damage (extends through 61-90% of the cartilage thickness)
Moderate damage (extends thru 31-60% of the cartilage thickness)
Mild damage (extends through 11-30% of the cartilage thickness)
Minimal damage (very superficial, affecting upper 10% only)
Single clefts were arbitrarily given a measure of 100 µm and the number of clefts was multiplied by 100 if several are present.

[2] = test system: rabbits subjected to anterior cruciate ligament transection (ACLT); assay: Rabbit ACLT study, contrast-enhanced µCT of articular cartilage; format: in vivo
Source text: The animals were acquired following review and approval by the Institutional Animal Care and Use Committee (IACUC) at Numira (Salt Lake City, UT). The protocol was also reviewed and approved by the IACUC at Ibex Preclinical Research Inc. (Logan, UT). Male, New Zealand White rabbits (n = 32) were purchased from the Western Oregon Rabbit Co. (Philomath, OR). The animals were approximately 9 months old, weighed 3.7–4.5 kg at the start of the experiment and were randomized into four treatment groups based on body weight.
Pre-operative butorphanol (0.5–1.0 mg/kg, i.m.) for analgesia and glycopyrrolate (~ 0.1 mg/kg i.m.) were administered up to 15 min prior to induction. Anesthesia was induced by a mixture of ketamine (20–40 mg/kg, i.m.) and xylazine (5–10 mg/kg, i.m.), followed by placement of an endotracheal tube. General anesthesia was maintained with isoflurane. Perioperative cefazolin (40 mg/kg, i.v.) was administered, and […] (0.2 mg/kg, i.v.) was administered to reverse the effects of xylazine after endotracheal intubation was complete. A fentanyl patch (25 µg/h) was placed on a clipped area of the skin to provide post-operative analgesia. An incision of 1.5–2.5 cm was made in the skin over the medial side of the right knee under aseptic conditions. The patella was dislocated laterally and the knee placed in full flexion. The anterior cruciate ligament (ACL) was visualized and transected with an appropriate blade. In sham animals, the ACL was visualized but not transected. The joint was irrigated with sterile saline and closed. The muscle and skin were closed with suture and/or surgical glue. Butorphanol (0.5–1 mg/kg, i.m.) was administered after extubation to provide supplemental analgesia. The animals were then individually housed in stainless steel or plastic cages.
Starting 1 week after sham operation or ACLT, animals were dosed daily for 7 weeks by oral gavage with either MIV-711 (synthesized by Medivir and given as a suspension in 1% Methocel A4C in water) or vehicle (1% Methocel A4C in water) at a dose volume of 4 mL/kg. The four treatment groups (n = 7 in each group) were: (1) sham + vehicle; (2) ACLT + vehicle; (3) ACLT + MIV-711, 30 µmol/kg (low dose) and (4) ACLT + MIV-711, 100 µmol/kg (high dose).
Femora and tibias from all animals were subjected to µCT scanning without and with contrast reagent, to visualize bone and cartilage, respectively. Samples were scanned on a high-resolution, volumetric µCT scanner (μCT40, ScanCo Medical, Zurich, CH). The image data was acquired with the following parameters: 36 μm isotropic voxel resolution at 300 ms exposure time, 2000 views and 1 frame per view. Each sample was scanned twice, once for acquiring bone data and once for soft tissue data. After the bone scans, the knees were stained using hexabrix for contrast-enhanced imaging of the cartilage. The µCT-generated DICOM files were used to analyze the samples and to create volume renderings of the regions of interest (ROI). The raw data files were converted into a file format compatible with the segmentation software VHLab (Numira). VHLab was used for segmenting out the regions of interest (osteophyte, cartilage, and subchondral bone) for the femur and tibia of each sample. A region spanning 9 mm of the articulating surface of the femur and 6.5 mm of the tibia was selected for segmenting out the cartilage and subchondral bone in the anterior–posterior direction. After the segmentation process, the voxel count associated with each of the regions of interest was calculated using VHLab. The voxel count was then multiplied by the cubic voxel resolution to obtain volume measurements for the different ROI. Cartilage thickness was calculated using SCIRun (Scientific Computing and Imaging Institute, University of Utah). The distance from the bone to the outer surface of the articulating cartilage was calculated. An image was generated that translates the distances into a color map for viewing the thickness along the length of the cartilage. […]

[3] = individual animals of MIV-711 group

With `C#C[C@@H]1CN(C(=O)[C@H](CC(C)C)NC(=O)c2ccc(-c3nc(N4CCN(C)CC4)sc3F)cc2)[C@@H]2C(=O)CO[C@H]12` [MIV-711] the “collagen degeneration, percentage of total width: Mild” value ([1]; group Mean) was 17%, the “collagen degeneration, percentage of total width: Mild+ Minimal” value ([1]; group Mean) was 28% and the “collagen degeneration, percentage of total width: Minimal” value ([1]; group Mean) was 11%. The “collagen degeneration, percentage of total width: Moderate+ Mild+ Minimal” value ([1]; group Mean) was 30%, the “collagen degeneration, percentage of total width: Normal” value ([1]; group Mean) was 70% and the “collagen degeneration, percentage of total width: Severe” value ([1]; group Mean) was 0%. For the same compound, the “collagen degeneration, percentage of total width: Severe+ Marked” value ([1]; group Mean) was 0%, the “collagen degeneration, percentage of total width: Severe+ Marked+ Moderate” value ([1]; group Mean) was 2% and the “collagen degeneration, percentage of total width: Severe+ Marked+ Moderate+ Mild” value ([1]; group Mean) was 19%. For the same compound, the “collagen degeneration, percentage of total width: Total” value ([1]; group Mean) was 30%, the “collagen degeneration, percentage of total width: Mild” value [1, 3] was 10% and 26% and 11% and 4% and 31% and 27% and 13% and 25% and 30% and 14% and 8% and 16% and the “collagen degeneration, percentage of total width: Mild+ Minimal” value [1, 3] was 18% and 31% and 23% and 14% and 35% and 39% and 20% and 24% and 34% and 58% and 25% and 16% and 28% and 30%. The “collagen degeneration, percentage of total width: Minimal” value [1, 3] was 9% and 5% and 12% and 10% and 4% and 7% and 8% and 27% and 2% and 20% and 14%, the “collagen degeneration, percentage of total width: Moderate+ Mild+ Minimal” value [1, 3] was 19% and 31% and 23% and 24% and 35% and 39% and 27% and 34% and 58% and 29% and 18% and 28% and 26% and 30% and the “collagen degeneration, percentage of total width: Normal” value [1, 3] was 81% and 69% and 77% and 76% and 65% and 61% and 73% and 62% and 42% and 71% and 82% and 72% and 74% and 70%. The “collagen degeneration, percentage of total width: Severe” value [1, 3] was 0%, the “collagen degeneration, percentage of total width: Severe+ Marked” value [1, 3] was 0% and the “collagen degeneration, percentage of total width: Severe+ Marked+ Moderate” value [1, 3] was 1% and 0% and 10% and 7% and 4% and 2% and 3%. The “collagen degeneration, percentage of total width: Severe+ Marked+ Moderate+ Mild” value [1, 3] was 11% and 26% and 14% and 31% and 27% and 20% and 13% and 25% and 30% and 17% and 16% and 8% and 19%, the “collagen degeneration, percentage of total width: Total” value [1, 3] was 19% and 31% and 23% and 24% and 35% and 39% and 27% and 38% and 58% and 29% and 18% and 28% and 26% and 30% and the “% inhibition, collagen degeneration width: Mild” value ([1]; versus Vehicle) was -2%. The “% inhibition, collagen degeneration width: Mild+ Minimal” value ([1]; versus Vehicle) was 12%, the “% inhibition, collagen degeneration width: Minimal” value ([1]; versus Vehicle) was 28% and the “% inhibition, collagen degeneration width: Moderate+ Mild+ Minimal” value ([1]; versus Vehicle) was 12%. For the same compound, the “% inhibition, collagen degeneration width: Normal” value ([1]; versus Vehicle) was -6%, the “% inhibition, collagen degeneration width: Severe+ Marked+ Moderate” value ([1]; versus Vehicle) was 21% and the “% inhibition, collagen degeneration width: Severe+ Marked+ Moderate+ Mild” value ([1]; versus Vehicle) was 1%. The “% inhibition, collagen degeneration width: Total” value ([1]; versus Vehicle) was 12%, the “Cartilage Thickness, Lateral” value ([2]; Femur, high dose 100 µmol/kg) was 251 ± 12 µm and the “Cartilage Thickness, Medial” value ([2]; Femur, high dose 100 µmol/kg) was 306 ± 12 µm. For the same compound, the “Cartilage Thickness, Total” value ([2]; Femur, high dose 100 µmol/kg) was 278 ± 11 µm, the “Cartilage Volume, Lateral” value ([2]; Femur, high dose 100 µmol/kg) was 23.0 ± 1.1 mm^3 and the “Cartilage Volume, Medial” value ([2]; Femur, high dose 100 µmol/kg) was 27.2 ± 1.6 mm^3. For the same compound, the “Cartilage Volume, Total” value ([2]; Femur, high dose 100 µmol/kg) was 50.2 ± 2.2 mm^3, the “Cartilage Thickness, Lateral” value ([2]; Femur, low dose 30 µmol/kg) was 257 ± 13 µm and the “Cartilage Thickness, Medial” value ([2]; Femur, low dose 30 µmol/kg) was 310 ± 18 µm. For the same compound, the “Cartilage Thickness, Total” value ([2]; Femur, low dose 30 µmol/kg) was 283 ± 15 µm, the “Cartilage Volume, Lateral” value ([2]; Femur, low dose 30 µmol/kg) was 23.1 ± 1.1 mm^3 and the “Cartilage Volume, Medial” value ([2]; Femur, low dose 30 µmol/kg) was 27.5 ± 2.6 mm^3. For the same compound, the “Cartilage Volume, Total” value ([2]; Femur, low dose 30 µmol/kg) was 50.6 ± 3.5 mm^3, the “Cartilage Thickness, Lateral” value ([2]; Tibia, high dose 100 µmol/kg) was 369 ± 24 µm and the “Cartilage Thickness, Medial” value ([2]; Tibia, high dose 100 µmol/kg) was 539 ± 25 µm. The “Cartilage Thickness, Total” value ([2]; Tibia, high dose 100 µmol/kg) was 445 ± 22 µm, the “Cartilage Volume, Lateral” value ([2]; Tibia, high dose 100 µmol/kg) was 21.6 ± 2.0 mm^3 and the “Cartilage Volume, Medial” value ([2]; Tibia, high dose 100 µmol/kg) was 25.3 ± 1.2 mm^3. For the same compound, the “Cartilage Volume, Total” value ([2]; Tibia, high dose 100 µmol/kg) was 46.9 ± 3.1 mm^3, the “Cartilage Thickness, Lateral” value ([2]; Tibia, low dose 30 µmol/kg) was 349 ± 18 µm and the “Cartilage Thickness, Medial” value ([2]; Tibia, low dose 30 µmol/kg) was 533 ± 26 µm. For the same compound, the “Cartilage Thickness, Total” value ([2]; Tibia, low dose 30 µmol/kg) was 432 ± 20 µm, the “Cartilage Volume, Lateral” value ([2]; Tibia, low dose 30 µmol/kg) was 19.6 ± 1.3 mm^3 and the “Cartilage Volume, Medial” value ([2]; Tibia, low dose 30 µmol/kg) was 24.9 ± 1.5 mm^3. The “Cartilage Volume, Total” value ([2]; Tibia, low dose 30 µmol/kg) was 44.5 ± 2.6 mm^3.
